Experiments:
[1] = tested on: differentiated lung myofibroblasts + (TNFα and TGFβ); assay: BioMAP MyoF system; type: cell-based, human; conditions: annotated relative to vehicle controls
Source text: Cell types and stimuli used in each system are as follows: 3C system [HUVEC + (IL-1β, TNFα and IFNy)], 4H system [HUVEC + (IL-4 and histamine)], LPS system [PBMC and HUVEC + LPS (TLR4 ligand)], SAg system [PBMC and HUVEC + TCR ligands], BT system [CD19+ B cells and PBMC + (α-IgM and TCR ligands)], BF4T system [bronchial epithelial cells and HDFn + (TNFα and IL-4)], BE3C system [bronchial epithelial cells + (IL-1β, TNFα and IFNy)], CASM3C system [coronary artery smooth muscle cells + (IL-1 β, TNFα and IFNy)], HDF3CGF system [HDFn + (IL-1β, TNFα, IFNy, EGF, bFGF and PDGF-BB)], KF3CT system [keratinocytes and HDFn + (IL-1β, TNFα, IFNy and TGFβ)], MyoF system [differentiated lung myofibroblasts + (TNFα and TGFβ)] and Mphg system [HUVEC and M1 macrophages + Zymosan (TLR2 ligand)].
Systems are derived from either single cell types or co-culture systems. Adherent cell types are cultured in 96 or 384-well plates until confluence, followed by the addition of PBMC (SAg and LPS systems). […] Soluble factors from supernatants are quantified using either HTRF® detection, bead-based multiplex immunoassay or capture ELISA. Overt adverse effects of test agents on cell proliferation and viability (cytotoxicity) are detected by sulforhodamine B (SRB) staining, for adherent cells, and alamarBlue® reduction for cells in suspension. […]

[2] = tested on: rats with TGFβ1-induced trabecular meshwork fibrosis; assay: Rodent model of anterior segment fibrosis / ocular hypertension (IC TGFβ1), s.c. LMW-DS 15 mg/kg daily; type: in vivo, rat; conditions: day 28
Protocol: Before induction of raised IOP, rats were randomly assigned into two groups (for saline vehicle and LMW-DS treatment). Induction of raised IOP was induced as previously described (Hill LJ, et al. Decorin reduces intraocular pressure and retinal ganglion cell loss in rodents through fibrolysis of the scarred trabecular meshwork. Investigative ophthalmology & visual science. 2015; 56(6): 3743-57). At 0 d, a 15° disposable blade was used to make a self-sealing tunnel through the cornea and this access point was employed for all subsequent twice weekly 3.5 µl IC injections of 5 ng/ml TGFβ1 (Peprotech, London, UK), carried out using sterile glass micropipettes (Harvard Apparatus, Kent, UK) over the 28 d experiment. IOP was also measured twice-weekly (immediately prior to the IC injection) throughout the 28 d experiment. […] At 14 d, rats received either subcutaneous injections of 15 mg/kg LMW-DS (Tikomed AB) or an equivalent saline volume, which continued daily for 14 d. OCT measurements of the RFNL were taken at 28 d as a surrogate for RGC density and ocular tissues from both groups were processed for immunohistochemistry to assess levels of TM fibrosis and RGC survival.
Adult 10 week old) male Sprague Dawley rats (Charles River, Kent, UK) were housed with free access to food and water under a 12 h dark/light cycle. Surgery was performed at the Biomedical Services Unit at the University of Birmingham (UK) in accordance with the Home Office guidelines set out in the 1986 Animal Act (UK) and the ARVO Statement for the Use of Animals in Ophthalmic and Vision Research. Intraocular injections, optical coherence tomography and intraocular pressure measurements were all taken whilst rats were under inhaled anesthesia using between 2% - 5% isofluorane / 98% - 95% O2 (National Vet Supplies, UK). The welfare of all rats was monitored closely at all times.
IOP measurements were obtained using an iCare Tonolab (ICare, Helsinki, Finland) calibrated for rats. IOP was recorded twice weekly between 9 am and 11 am throughout the 28 d experiment to avoid confounding circadian variabilities in IOP. Immediately after induction of anesthesia, six rebound measurements were taken with the tonometer from the central cornea and averaged to give a single reading (mmHg). Each graphical data point represents the mean ± SEM of three readings (6 rebounds) taken from each rat sequentially to ensure accurate measurements.
Retinal nerve fiber layer (RNFL) measurements were taken at 28 d using a Spectralis HRA3 confocal scanning laser ophthalmoscope (Heidelberg Engineering, Heidelberg, Germany). Images were obtained from rats whilst under inhalational anesthesia (as described in the ‘Animals and Surgery’ section above). OCT images were taken of the retina around the optic nerve head and in-built software was used to segment images and quantify the RNFL thickness.
Rats were euthanized by an intraperitoneal injection of sodium pentobarbital (National Veterinary Supplies) on 28 d and intracardially perfused with 4% paraformaldehyde (PFA; TAAB, Aldermaston, UK) in PBS whilst under terminal anesthesia. Eyes were removed and immersion fixed in 4% PFA in PBS for 2 hours at room temperature and then cryoprotected using increasing concentrations of (10%, 20% and 30% sucrose) for 24 hours each at 4° C. […]

[3] = biological target: T1, SARS-CoV-2 spike protein - ACE2 interaction (Severe acute respiratory syndrome coronavirus 2, UniProt P0DTC2); assay: RayBio COVID-19 Spike-ACE2 binding assay kit (ELISA); parameters: species or system SARS-CoV-2 / human; conditions: LMW-DS 3.0 to 600 µg/ml
T1 construct: purchased RayBio CoV-SACE2
Protocol: The RayBio® COVID-19 Spike-ACE2 binding assay kit (cat. number CoV-SACE2) was used as per the manufacturer’s instructions (ver 1.6) to assess the ability of LMW-DS to disrupt the interaction between SARS-CoV-2 spike protein and ACE2.
LMW-DS (ILB®, Tikomed AB, Viken, Sweden, WO 2016/076780) in saline was added in concentrations ranging from […] to 600 µg/ml.

Substance: sodium salt of dextran sulfate [LMW-DS]
- Increased biomarker activity [1]: IL-8
- fibronectin in the TM (immunoreactive) [2]: 40.2 ± 4.0%
- laminin in the TM (immunoreactive) [2]: 25.6 ± 3.5%
- retinal nerve fibre layer (RNFL) thickness (OCT) [2]: 59.9 ± 1.2 µm
- surviving retinal ganglion cells (RGC) [2]: 12.6 ± 0.4 RGC/mm
- IOP ([2]; IC TGFβ1 with SC LMW-DS from day 14): 11.4 ± 0.2 mmHg
- SARS-CoV-2 spike protein - ACE2 interaction [3]: concentration dependent disruption

— US20230346827A1 (priority 2020, published 2023)
